Source: patent publication US6387950B2, “Treatment of tumors with RARα selective retinoid compounds in combination with other anti-tumor agents” (Allergan Sales, Inc., priority 2000, dated 2002)

Columns and labels:
[1] = target: T1, RARα receptors (Homo sapiens, UniProt P10276); experiment: ligand binding assay; conditions: receptor read as RARα from the sentence
T1 construct: made in house; used as extract protein
T1 sequence (P10276 1-462): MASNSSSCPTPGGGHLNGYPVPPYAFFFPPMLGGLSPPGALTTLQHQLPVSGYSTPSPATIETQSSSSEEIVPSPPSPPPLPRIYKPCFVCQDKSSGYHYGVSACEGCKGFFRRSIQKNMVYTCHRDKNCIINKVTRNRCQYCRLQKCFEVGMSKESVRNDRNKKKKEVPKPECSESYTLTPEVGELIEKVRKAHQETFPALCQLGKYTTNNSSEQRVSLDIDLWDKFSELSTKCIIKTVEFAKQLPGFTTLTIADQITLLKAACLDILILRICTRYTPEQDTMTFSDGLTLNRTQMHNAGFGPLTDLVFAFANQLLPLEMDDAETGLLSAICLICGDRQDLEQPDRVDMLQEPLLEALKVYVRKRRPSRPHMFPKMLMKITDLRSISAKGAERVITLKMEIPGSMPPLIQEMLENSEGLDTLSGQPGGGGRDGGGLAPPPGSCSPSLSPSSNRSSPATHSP
Experimental: All binding assays were performed in a similar fashion. All six receptor types were derived from the expressed receptor type (RAR α, β, γ and RXR α, β, γ) expressed in Baculovirus. Stock solutions of all compounds were prepared as 10 mM ethanol solutions and serial dilutions carried out into 1:1 DMSO; ethanol. Assay buffers consisted of the following for all six receptor assays: 8% glycerol. 120 mM KCl. 8 mM Tris. 5 mM CHAPS 4 mM DTT and 0.24 mM PMSF. pH-7.4@room temperature.
All receptor biding assays were performed in the same manner. The final assay volume was 250 μl and contained from 10-40 μg of extract protein depending on receptor being assayed along with 5 nM of [^3H] all-trans retinoic acid or 10 nM [^3H] 9-cis retinoic acid and varying concentrations of competing ligand at concentrations that ranged from 0-10^−5M. The assays were formatted for a 96 well minitube system. Incubations were carried out at 4° C. until equilibrium was achieved. […] The amount of receptor-ligand complex was determined by liquid scintillation counting of hydroxyapitite pellet.
After correcting for non-specific binding, IC50 values were determined. […] The IC50 value was determined graphically from a loglogit plot of the data. The […] were determined by application of the Cheng-Prussof equation to the IC50 values, the labeled ligand concentration and the Kd of the labeled ligand. […]

[2] = target: T2, RARα receptors (Homo sapiens, UniProt P10276); experiment: chimeric receptor transactivation assay, RARα; format: cell-based
T2 sequence (P10276 183-417 limits assumed): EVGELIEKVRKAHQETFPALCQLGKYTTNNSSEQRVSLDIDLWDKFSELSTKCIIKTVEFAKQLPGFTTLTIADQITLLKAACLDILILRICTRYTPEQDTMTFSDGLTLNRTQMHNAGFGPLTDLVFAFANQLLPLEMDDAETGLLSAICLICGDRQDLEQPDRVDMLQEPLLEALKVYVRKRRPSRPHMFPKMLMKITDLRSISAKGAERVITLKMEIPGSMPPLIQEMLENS
Excerpt: For example, a chimeric receptor transactivation assay which tests for agonist-like activity in the RARα, RARβ, RARγ, RXRα receptor subtypes, and which is based on work published by Feigner P. L. and Holm M. (1989) Focus, 112 is described in detail in U.S. Pat. No. 5,455,265. The specification of U.S. Pat. No. 5,455,265 is hereby expressly incorporated by reference.
The results obtained in this assay are expressed in EC50 numbers, as they are also in the chimeric receptor transactivation assay.

- Kd [1]: 5 nM
- EC50 [2]: 180 nM
- efficiency [2]: 75%
Compound: CC1(C)CCC(C)(C)c2c1cc(C(=O)Nc1cc(F)c(C(=O)O)c(F)c1)c(O)c2Cl [Compound 2, 2,6-Difluoro-4-[(3-hydroxy-4-chloro-5,5,8 8-tetramethyl-5,6,7,8-tetrahydronaphthalene-2-carbonyl) -amino]-benzoic acid]
